From patent publication US8633019B2, “Methods for treating spinal muscular atrophy” (PTC Therapeutics, Inc., priority 2008, dated 2014)

The molecules below were run on inclusion of exon 7 of SMN2 into mRNA transcribed from the SMN2-A minigene (assay: Fold Activation: luciferase reporter, SMN2-A minigene construct versus SMN2-G minigene construct, in stably transfected HEK293H cells). Details: ratio of First Activation using the SMN2-A construct divided by Second Activation using the SMN2-G construct.
Assay type: cell-based, human
Excerpt: In a specific embodiment, the first cell and the second cell are the same cell type. In some embodiments, the first cell and the second cell are the same cell type and are obtained from the same source or clone. In some embodiments, the first reporter gene and the second reporter gene are the same reporter gene. In other embodiments, the first reporter gene and second reporter gene are different reporter genes. A compound that increases the inclusion of exon 7 of SMN2 into mRNA transcribed from the SMN2 gene will result in a Fold Activation derived from a higher ratio of the First Activation:
[formula] [formula] [formula] In some embodiments, both the amount and activity of the first and second fusion proteins are detected. Accordingly, as used herein, the Fold Activation for a compound that modulates the inclusion of exon 7 of SMN2 into mRNA transcribed from the SMN2 gene is a ratio of the First Activation divided by the Second Activation.
The HEK293H cell line stably transfected with the SMN2-A minigene construct was utilized in the HTS. HTS was performed by plating 10,000 cells in each well of a 384-well plate. Each 384-well plate contained 64 control wells used as an internal standard: 16 wells were used as a total control (no test compound, only compound solvent), 16 wells were used as reference standards representing background readings (high inhibitor concentration) and 32 wells were prepared to provide an 8-point dose response curve of puromycin as a non-specific standard control inhibitor. The remaining 320 wells contained individual test compounds. The cells were grown overnight in the presence of test compounds or controls at 37° C. in 5% CO2. After 24 hours, the amount of luminescence was determined using a ViewLux Imaging system (Perkin Elmer).
Using the SMN2-A minigene construct, a HTS was performed testing a compound library. The amount of the fusion protein expressed from the minigene construct was determined by measuring luciferase activity as described herein. […] Enhancers of fusion protein expression were defined as those compounds that increased luciferase activity by at least three standard deviations above the mean. Based on this analysis, test compounds of Formula (I) were identified as hits and were subsequently confirmed by testing the compounds under the same conditions as in the original HTS. To ensure that the increase in luciferase activity detected in the HTS was due to increased inclusion of exon 7 of SMN2 into mRNA transcripts from the SMN2-A minigene construct, each compound was tested in two different cell lines: the cell line, which was used in the original HTS (HEK293H containing the SMN2-A minigene construct), and a HEK293H cell line that contained the SMN2-G minigene construct.
Each compound was tested at four concentrations: 15 μM, 3 μM, 0.6 μM, 0.12 μM.
The Fold Activation results are provided as a ratio of a First Activation using the SMN-2A construct divided by a Second Activation using the SMN-2G construct, wherein 1 star (*) represents active compounds with a fold increase ratio between 1.1-1.3; 2 stars (**) represent active compounds with a fold increase ratio between 1.3-2.0; 3 stars (***) represent active compounds with a fold increase ratio greater than 2.0.

| Compound | Activity (Fold Activation) |
| --- | --- |
| Cc1ccc2nc(-c3cccc(C(=O)O)c3)oc2c1 [Cpd 2, 3-(6-methyl-benzooxazol-2-yl)-benzoic acid] | * (1 star (*) represents active compounds with a fold increase ratio between 1.1-1.3) |
| CC(C)(C)c1ccc2oc(-c3cccc(C(=O)O)c3)nc2c1 [Cpd 6, 3-(5-tert-butyl-benzooxazol-2-yl)-benzoic acid] | ** (2 stars (**) represent active compounds with a fold increase ratio between 1.3-2.0) |
| O=C(O)c1cccc(-c2nc3ccc(Cn4ccnc4)cc3o2)c1 [Cpd 8, 3-(6-imidazol-1-ylmethyl-benzooxazol-2-yl)-benzoic acid] | ** (2 stars (**) represent active compounds with a fold increase ratio between 1.3-2.0) |
| Cc1ccc2nc(-c3ccc(C(=O)O)cc3)oc2c1 [Cpd 11, 4-(6-methyl-benzooxazol-2-yl)-benzoic acid] | ** (2 stars (**) represent active compounds with a fold increase ratio between 1.3-2.0) |
| O=C(O)c1ccc2nc(-c3ccc(-c4ccccc4)cc3)oc2c1 [Cpd 18, 2-biphenyl-4-yl-benzooxazole-6-carboxylic acid] | * (1 star (*) represents active compounds with a fold increase ratio between 1.1-1.3) |
| O=C(O)c1ccc2oc(-c3ccc(-c4ccccc4)cc3)nc2c1 [Cpd 19, 2-biphenyl-4-yl-benzooxazole-5-carboxylic acid] | ** (2 stars (**) represent active compounds with a fold increase ratio between 1.3-2.0) |
| Cc1ccc2oc(-c3cccc(C(=O)O)c3)nc2c1 [Cpd 21, 3-(5-methyl-benzooxazol-2-yl)-benzoic acid] | *** (3 stars (***) represent active compounds with a fold increase ratio greater than 2.0) |
| CCC(C)(C)c1ccc2oc(-c3cccc(C(=O)O)c3)nc2c1 [Cpd 22, 3-[5-(1,1-dimethyl-propyl)-benzooxazol-2-yl]-benzoic acid] | ** (2 stars (**) represent active compounds with a fold increase ratio between 1.3-2.0) |
| O=C(O)c1cccc(-c2nc3ccc(-c4ccccc4)cc3o2)c1 [Cpd 23, 3-(6-Phenyl-benzooxazol-2-yl)-benzoic acid] | * (1 star (*) represents active compounds with a fold increase ratio between 1.1-1.3) |
| CC(C)c1ccc(-c2nc3cc(C(=O)O)ccc3o2)cc1 [Cpd 24, 2-(4-isopropyl-phenyl)-benzooxazole-5-carboxylic acid] | *** (3 stars (***) represent active compounds with a fold increase ratio greater than 2.0) |
| O=C(O)c1ccc2oc(-c3ccc4c(c3)OCO4)nc2c1 [Cpd 26, 2-benzo[1,3]dioxol-5-yl-benzooxazole-5-carboxylic acid] | ** (2 stars (**) represent active compounds with a fold increase ratio between 1.3-2.0) |
| O=C(O)c1ccc2oc(-c3ccc(N4CCCC4=O)cc3)nc2c1 [Cpd 28, 2-[4-(2-oxo-pyrrolidin-1-yl)-phenyl]-benzooxazole-5-carboxylic acid] | ** (2 stars (**) represent active compounds with a fold increase ratio between 1.3-2.0) |
| O=C(O)c1cccc(-c2nc3cc(-c4ccc(OC(F)(F)F)cc4)ccc3o2)c1 [Cpd 29, 3-[5-(4-trifluoromethoxy-phenyl)-benzooxazol-2-yl]-benzoic acid] | ** (2 stars (**) represent active compounds with a fold increase ratio between 1.3-2.0) |
| O=C(O)c1cccc(-c2nc3cc(-c4ccc(F)c(F)c4)ccc3o2)c1 [Cpd 30, 3-[5-(3,4-difluoro-phenyl)-benzooxazol-2-yl]-benzoic acid] | ** (2 stars (**) represent active compounds with a fold increase ratio between 1.3-2.0) |
| O=C(O)c1cccc(-c2nc3cc(-c4cc5ccccc5o4)ccc3o2)c1 [Cpd 31, 3-(5-benzofuran-2-yl-benzooxazol-2-yl)-benzoic acid] | ** (2 stars (**) represent active compounds with a fold increase ratio between 1.3-2.0) |
| COc1ccc2oc(-c3cccc(C(=O)O)c3)nc2c1 [Cpd 32, 3-(5-methoxy-benzooxazol-2-yl)-benzoic acid] | *** (3 stars (***) represent active compounds with a fold increase ratio greater than 2.0) |

| Compound | Activity (Fold Activation) |
| --- | --- |
| O=C(O)c1ccc2oc(-c3ccc(Br)cc3)nc2c1 [Cpd 35, 2-(4-bromo-phenyl)-benzooxazole-5-carboxylic acid] | ** (2 stars (**) represent active compounds with a fold increase ratio between 1.3-2.0) |
| CC(C)c1ccc(-c2ccc3oc(-c4cccc(C(=O)O)c4)nc3c2)cc1 [Cpd 36, 3-[5-(4-isopropyl-phenyl)-benzooxazol-2-yl]-benzoic acid] | ** (2 stars (**) represent active compounds with a fold increase ratio between 1.3-2.0) |
| Cc1cc(C)cc(-c2ccc3oc(-c4cccc(C(=O)O)c4)nc3c2)c1 [Cpd 37, 3-[5-(3,5-dimethyl-phenyl)-benzooxazol-2-yl]-benzoic acid] | * (1 star (*) represents active compounds with a fold increase ratio between 1.1-1.3) |
| Cc1ccc(-c2nc3cc(C(=O)O)ccc3o2)cc1 [Cpd 38, 2-p-tolyl-benzooxazole-5-carboxylic acid] | *** (3 stars (***) represent active compounds with a fold increase ratio greater than 2.0) |
| COc1ccc(-c2nc3cc(C(=O)O)ccc3o2)cc1 [Cpd 39, 2-(4-methoxy-phenyl)-benzooxazole-5-carboxylic acid] | ** (2 stars (**) represent active compounds with a fold increase ratio between 1.3-2.0) |
| O=C(O)c1cccc(-c2nc3ccc(N4CCCCC4)cc3o2)c1 [Cpd 41, 3-(6-piperidin-1-yl-benzooxazol-2-yl)-benzoic acid] | *** (3 stars (***) represent active compounds with a fold increase ratio greater than 2.0) |
| O=C(O)c1cccc(-c2nc3ccc(N4CCOCC4)cc3o2)c1 [Cpd 42, 3-(6-morpholin-4-yl-benzooxazol-2-yl)-benzoic acid] | ** (2 stars (**) represent active compounds with a fold increase ratio between 1.3-2.0) |
| O=C(O)c1cccc(-c2nc3cc(N4CCCC4)ccc3o2)c1 [Cpd 43, 3-(5-pyrrolidin-1-yl-benzooxazol-2-yl)-benzoic acid] | ** (2 stars (**) represent active compounds with a fold increase ratio between 1.3-2.0) |
| O=C(O)c1cccc(-c2nc3ccc(-n4cccn4)cc3o2)c1 [Cpd 44, 3-(6-pyrazol-1-yl-benzooxazol-2-yl)-benzoic acid] | ** (2 stars (**) represent active compounds with a fold increase ratio between 1.3-2.0) |
| CN1CCN(c2ccc3nc(-c4cccc(C(=O)O)c4)oc3c2)CC1 [Cpd 48, 3-[6-(4-methyl-piperazin-1-yl)-benzooxazol-2-yl]-benzoic acid] | * (1 star (*) represents active compounds with a fold increase ratio between 1.1-1.3) |
| O=C(O)c1ccc2oc(-c3ccc(N4CCOCC4)cc3)nc2c1 [Cpd 51, 2-(4-morpholin-4-yl-phenyl)-benzooxazole-5-carboxylic acid] | ** (2 stars (**) represent active compounds with a fold increase ratio between 1.3-2.0) |
| O=C(O)c1cccc(-c2nc3ccc(N4CCC4)cc3o2)c1 [Cpd 52, 3-(6-azetidin-1-yl-benzooxazol-2-yl)-benzoic acid] | ** (2 stars (**) represent active compounds with a fold increase ratio between 1.3-2.0) |
| O=C(O)c1ccc2oc(-c3ccc(NCCCCl)cc3)nc2c1 [Cpd 54, 2-[4-(3-chloro-propylamino)-phenyl]-benzooxazole-5-carboxylic acid] | ** (2 stars (**) represent active compounds with a fold increase ratio between 1.3-2.0) |
| O=C(O)c1ccc2oc(-c3ccc(F)cc3)nc2c1 [Cpd 55, 2-(4-fluoro-phenyl)-benzooxazole-5-carboxylic acid] | * (1 star (*) represents active compounds with a fold increase ratio between 1.1-1.3) |
| O=C(O)c1ccc2oc(-c3ccc(N4CCC4)cc3)nc2c1 [Cpd 57, 2-(4-azetidin-1-yl-phenyl)-benzooxazole-5-carboxylic acid] | ** (2 stars (**) represent active compounds with a fold increase ratio between 1.3-2.0) |
| O=C(O)c1ccc2nc(-c3ccco3)oc2c1 [Cpd 65, 2-furan-2-yl-benzooxazole-6-carboxylic acid] | ** (2 stars (**) represent active compounds with a fold increase ratio between 1.3-2.0) |
